According to publication PMC9090415, “Discovery of small molecule inhibitors of Plasmodium falciparum apicoplast DNA polymerase” (Journal of Enzyme Inhibition and Medicinal Chemistry, 2022):

Biological target: T1, bacteriophage T4 DNA polymerase (Enterobacteria phage T4, UniProt P04415)
T1 construct: made in house
T1 sequence (P04415 1-898): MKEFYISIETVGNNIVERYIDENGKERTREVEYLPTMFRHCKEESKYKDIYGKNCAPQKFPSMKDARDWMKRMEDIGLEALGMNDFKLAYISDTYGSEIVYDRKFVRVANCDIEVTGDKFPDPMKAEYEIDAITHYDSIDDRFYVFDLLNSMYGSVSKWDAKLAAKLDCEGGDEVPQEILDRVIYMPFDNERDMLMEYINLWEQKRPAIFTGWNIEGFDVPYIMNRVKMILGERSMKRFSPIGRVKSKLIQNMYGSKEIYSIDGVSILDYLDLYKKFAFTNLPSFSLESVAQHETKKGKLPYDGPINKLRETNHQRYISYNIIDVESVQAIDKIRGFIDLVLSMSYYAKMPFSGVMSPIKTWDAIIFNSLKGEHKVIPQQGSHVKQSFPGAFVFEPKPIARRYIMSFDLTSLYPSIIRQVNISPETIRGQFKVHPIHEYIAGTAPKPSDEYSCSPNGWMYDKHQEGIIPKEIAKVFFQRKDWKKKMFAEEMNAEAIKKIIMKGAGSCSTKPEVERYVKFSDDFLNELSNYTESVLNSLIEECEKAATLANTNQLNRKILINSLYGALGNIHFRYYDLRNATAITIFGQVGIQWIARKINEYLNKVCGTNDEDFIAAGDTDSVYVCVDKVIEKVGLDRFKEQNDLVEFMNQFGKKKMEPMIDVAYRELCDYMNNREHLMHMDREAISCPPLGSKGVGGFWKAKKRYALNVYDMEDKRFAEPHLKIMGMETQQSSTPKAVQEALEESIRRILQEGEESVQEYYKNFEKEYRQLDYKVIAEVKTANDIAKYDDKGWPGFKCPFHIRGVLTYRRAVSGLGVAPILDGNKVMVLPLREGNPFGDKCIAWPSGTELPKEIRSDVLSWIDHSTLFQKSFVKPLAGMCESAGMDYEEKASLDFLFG
Assay: Counter-screen against bacteriophage T4 DNA polymerase
Assay type: biochemical
Conditions: for % inhibition T4 10' 2.5 / % inhibition T4 10' 5 / % inhibition T4 10' 10 / % inhibition T4 10' 20 / % inhibition T4 10' 40 / % inhibition T4 10' 80: read at 10'
Method: Codon-optimized, exonuclease-deficient Pf-apPOL was overexpressed in E. coli BL21 (DE3) and purified as described. The protein was dialysed against two, 1-liter changes of 20 mM Tris-HCl (pH 8.0), 400 mM NaCl, and 20% glycerol. Plasmodium bergei and Babesia bovis apPOLs (Pb-apPOL and Bb-apPOL, respectively) were codon-optimized, expressed, and purified as for Pf-apPOL[15]. Bacteriophage T4 DNA polymerase was purified as described. The DNA oligonucleotides used to make the high-throughput substrate were obtained from Integrated DNA Technologies. Deoxynucleotides were purchased from Strategene. All other materials came from Fisher Scientific.
Each compound was tested in a dose-response format to determine IC50 values. […] T4 DNA polymerase can be produced in large quantities, and is in the same family (B-family) as the replicative human DNA polymerases (α, δ, and ε)[20].

## CCCCC(=O)N1CCc2c(nc3cc(-c4ccccc4Cl)[nH]n3c2=O)C1 [Molecule 37, CCCCC(=O)N1CCc2c(C1)nc1n(c2=O)[nH]c(c1)c1ccccc1Cl]
DRC-2, concentration 2.5
  % inhibition T4 10': 6%
  % inhibition T4 40': 6%
  % inhibition T4 90': 5%
DRC-2, concentration 5
  % inhibition T4 10': -3%
  % inhibition T4 40': -3%
DRC-2, concentration 10
  % inhibition T4 10': 3.42%
  % inhibition T4 40': 3.42%
DRC-2, concentration 20
  % inhibition T4 10': 0.821%
  % inhibition T4 40': 0.821%
DRC-2, concentration 40
  % inhibition T4 10': 4.74%
  % inhibition T4 40': 4.74%
  % inhibition T4 90': 5%
DRC-2, concentration 80
  % inhibition T4 10': 1.57%
  % inhibition T4 40': 1.57%

## Cn1nc(-c2nc(-c3ccccc3)no2)c2c1CCN(C(=O)Cc1cccs1)C2 [Molecule 58, O=C(N1CCc2c(C1)c(nn2C)c1onc(n1)c1ccccc1)Cc1cccs1]
DRC-1, concentration 2.5
  % inhibition T4 10' 2.5: 2%
DRC-1, concentration 5
  % inhibition T4 10' 5: 6%
DRC-1, concentration 10
  % inhibition T4 10' 10: 20%
DRC-1, concentration 20
  % inhibition T4 10' 20: 24%
DRC-1, concentration 40
  % inhibition T4 10' 40: 35%
DRC-1, concentration 80
  % inhibition T4 10' 80: 33%
DRC-1, read at 70', concentration 2.5
  % inhibition T4 70' 2.5: -0.863%
DRC-1, read at 70', concentration 5
  % inhibition T4 70' 5: 0.684%
DRC-1, read at 70', concentration 10
  % inhibition T4 70' 10: 13%
DRC-1, read at 70', concentration 20
  % inhibition T4 70' 20: 17%
DRC-1, read at 70', concentration 40
  % inhibition T4 70' 40: 26%
DRC-1, read at 70', concentration 80
  % inhibition T4 70' 80: 37%
DRC-1, read at 130', concentration 2.5
  % inhibition T4 130' 2.5: -2.41%
DRC-1, read at 130', concentration 5
  % inhibition T4 130' 5: -0.486%
DRC-1, read at 130', concentration 10
  % inhibition T4 130' 10: 9%
DRC-1, read at 130', concentration 20
  % inhibition T4 130' 20: 14%
DRC-1, read at 130', concentration 40
  % inhibition T4 130' 40: 24%
DRC-1, read at 130', concentration 80
  % inhibition T4 130' 80: 33%
DRC-2, concentration 2.5
  % inhibition T4 10' 2.5: 2.64%
DRC-2, concentration 5
  % inhibition T4 10' 5: 8%
DRC-2, concentration 10
  % inhibition T4 10' 10: 17%
DRC-2, concentration 20
  % inhibition T4 10' 20: 20%
DRC-2, concentration 40
  % inhibition T4 10' 40: 23%
DRC-2, concentration 80
  % inhibition T4 10' 80: 20%
DRC-2, read at 40', concentration 2.5
  % inhibition T4 40' 2.5: 2.18%
DRC-2, read at 40', concentration 5
  % inhibition T4 40' 5: 6.41%
DRC-2, read at 40', concentration 10
  % inhibition T4 40' 10: 17%
DRC-2, read at 40', concentration 20
  % inhibition T4 40' 20: 22%
DRC-2, read at 40', concentration 40
  % inhibition T4 40' 40: 27%
DRC-2, read at 40', concentration 80
  % inhibition T4 40' 80: 25%
DRC-2, read at 90', concentration 2.5
  % inhibition T4 90' 2.5: 2.76%
DRC-2, read at 90', concentration 5
  % inhibition T4 90' 5: 7%
DRC-2, read at 90', concentration 10
  % inhibition T4 90' 10: 17%
DRC-2, read at 90', concentration 20
  % inhibition T4 90' 20: 21%
DRC-2, read at 90', concentration 40
  % inhibition T4 90' 40: 24%
DRC-2, read at 90', concentration 80
  % inhibition T4 90' 80: 22%
DRC-2, read at 180', concentration 2.5
  % inhibition T4 180' 2.5: -1.52%
DRC-2, read at 180', concentration 5
  % inhibition T4 180' 5: 1.9%
DRC-2, read at 180', concentration 10
  % inhibition T4 180' 10: 13%
DRC-2, read at 180', concentration 20
  % inhibition T4 180' 20: 15%
DRC-2, read at 180', concentration 40
  % inhibition T4 180' 40: 20%
DRC-2, read at 180', concentration 80
  % inhibition T4 180' 80: 20%

## O=C1c2ccccc2C(=O)N1Oc1ccc([N+](=O)[O-])c([N+](=O)[O-])c1 [Molecule 66, O=N(=O)c1cc(ccc1N(=O)=O)ON1C(=O)c2c(C1=O)cccc2]
DRC-2, concentration 2.5
  % inhibition T4 10': -5%
  % inhibition T4 40': -5%
DRC-2, concentration 5
  % inhibition T4 10': -4%
  % inhibition T4 90': -4%
